# Paper PMC12077799, “Fragment-based drug discovery for transthyretin kinetic stabilisers using a novel capillary zone electrophoresis method” (PLOS One, 2025)
# Like-named read-outs stand apart in the source and are kept apart here.
# Legend:
# [1] = target: T1, Human transthyretin (TTR) thyroxine binding sites (Homo sapiens, UniProt P02766); assay: TTR CZE Free Probe Peak Height Restoration (FPPHR) assay, 8-ANS displacement; conditions: for change of free 8-ANS peak height with compound in the Running Buffer: in words, concentrations (e.g. Tafamidis 10 µM, Diphenylamine 250 μM, Verapamil 300 µM, Acetazolamide 500 µM); for FPPHR % at 50 μM: compound 50 μM in Running Buffer; for FPPHR % at 50 μM / FPPHR % tested at 10 µM / FPPHR % at 100 μM: 10% minimum for a binder; for FPPHR % tested at 10 µM: compound 10 µM in Running Buffer; for FPPHR % at 100 μM: compound 100 μM in Running Buffer
# T1 construct: purchased SCIPAC (Sittingbourne, Kent, UK) P171-1
# Protocol: CZE assays development and fragment screening were performed on a Beckman P/ACE MDQ capillary electrophoresis system (Beckman Coulter Inc., Brea, CA) operated by 32 Karat™ software. All capillaries (Polymicro Technologies, Phoenix, AZ) used were internally coated with polyvinyl alcohol and of around 30 cm in length, 75 microns in internal diameter. Capillary temperature was maintained at 20 °C by recirculating fluorinated fluid coolant during electrophoresis. Sample trays and buffer trays temperature were maintained at 4°C and ambient respectively. For every electrophoretic run, the capillary was pressure rinsed and prefilled with electrophoresis buffer also known as background electrolyte (termed as Running Buffer hereafter) before injection. After each electrophoretic run, the capillary was rinsed with Running Buffer and H2O by pressure (20 psi for 1 minute). Three Running Buffers (RB), A: 20 mM Tris pH 7.5, 1 mM KCl, 1.62 mM NaCl; B: 20 mM HEPES pH 7.0, 2 mM CaCl2 and C: 20 mM HEPES pH 7.0, 2 mM CaCl2, 1% DMSO were used. All CE traces were analysed by 32Karat™ Software with a built-in automatic peak integration algorithm.
# Control 1 Inject Buffer (IB) containing 30 μM 8-ANS was prepared by mixing 1 μL of 3 mM 8-ANS DMSO stock with 99 μL of Running Buffer B in a 0.2 mL PCR tube. Control 2 Inject Buffer was prepared by mixing 1μL of 3 mM 8-ANS DMSO stock with 20 μL of 100 μM tetrameric TTR stock in Running Buffer B and 79 μL of Running Buffer B. The final concentrations (f/c) were 8-ANS 30 μM, TTR 20 μM and 1% DMSO v/v.
# The maximum Free Probe Peak Height (Control 1 Peak Height) was determined by Outlet Injection (see Fig 1) of Control 1 with an injection pressure of 0.5 psi for 5 seconds (equivalent to ≈ 20–30 nL). An identical injection of Control 2 provides the minimum Free Probe Peak Height (Control 2 Peak Height) enabling calculation of % of bound and unbound, i.e., free 8-ANS. To determine the 8-ANS peak height in Control 1 and Control 2, the capillary was prefilled with Buffer C and electrophoresis carried out at 10 kV (Normal Polarity, Fig 1) with UV monitoring at 230 nm. For displacement analysis, ligand DMSO stock was diluted in Buffer B and used to fill the capillary as the Running Buffer. Electrophoresis commenced after injection of Control 2, thus the injected 8-ANS-TTR complex migrates inside a capillary filled with the test ligand. The observed 8-ANS peak height is defined as Sample Peak Height and the displaced 8-ANS can be calculated as:
# \% of Free Probe Peak Height Restoration= Sample Peak Height−Control 2 Peak Height/Control 1 Peak Height−Control 2 Peak Height
# [2] = target: T2, TTR in undiluted normal human reference plasma (Homo sapiens, UniProt P02766); assay: 125I-T4 displacement assay in neat normal human plasma; type: binding; conditions: for IC50: neat normal human plasma, 4-parameter logistic fit
# T2 construct: The TTR in plasma was immunoprecipitated by sheep anti-human prealbumin polyclonal antibody; tissue Precision Biologic Inc., Nova Scotia, Canada
# From the text: The assay was adapted from one described previously. Briefly, test ligand and ^125I-T4 (Perkin Elmer Inc., Waltham, MA) were mixed with undiluted normal human reference plasma (Precision Biologic Inc., Nova Scotia, Canada). The TTR in plasma was immunoprecipitated by sheep anti-human prealbumin polyclonal antibody (The Binding Site Group Ltd., Birmingham, UK). The immunoprecipitate was washed with buffer and their radioactivity measured with a 2470 WIZARD automatic gamma counter (Perkin Elmer Inc., Waltham, MA). […] Percentage of total radioligand binding for samples of different ligand concentration was then calculated as follows: […]
# To calculate IC50 values, percentage of total radioligand binding at different concentration points were entered in SigmaPlot™ 11.0. Titration curves were done in triplicates with a minimum of 5 data points fitted by 4-Parameter Logistic Function.
# [3] = target: T3, Human transthyretin (TTR) (Homo sapiens, UniProt P02766); assay: Co-crystallisation of TTR-ligand complex, X-ray hit confirmation; type: binding; conditions: for ligand electron density, binding sites occupied in co-crystal structure: in words; for Confirmed by X-ray: fragment seen in ligand-omitted difference density at >= 2σ in one or both binding sites, full or partial density
# T3 construct: purchased SCIPAC (Sittingbourne, Kent, UK) P171-1
# Protocol: Crystals were grown by vapor diffusion using a published crystallisation cocktail (100 mM HEPES pH 7.5, 200 mM CaCl2, 28% v/v PEG400) at 21 °C [29]. The hanging drop contained 1 μL of crystallisation cocktail, 1 μL of diluted ligand and 1 μL of TTR protein solution (85 μM). […] Crystals were harvested and flash cooled in a N2 cryostream or dipped into liquid ethane without cryoprotectant. Data was collected at Diamond Light Source (Oxon, UK) beamline I24, I04 or I04-1 (Pilatus 6M or ADSC Q315) or the European Synchrotron Radiation Facility (ESRF, Grenoble, France) beamline ID29 (Pilatus 6M-F) or in-house (Bruker X8 Diffractometer with APEXII CCD detector). Crystal unit cell was initially indexed by software MOSFLM [30] and LABELIT [31] within the EDNA [32] automatic data processing workflow. Diffraction image integration was performed by XDS [33] and reflection intensities were scaled by SCALA [34] or by PROTEUM2 if collected in-house. Phases were obtained by molecular replacement method using PHASER [35], 1DVQ from the Protein Data Bank (PDB) was used as the search model. Atomic positions of the initial model were refined by REFMAC5 [36]. Model building and ligand fitting was completed using COOT [37]. Model graphics were generated using CCP4MG [38]. Crystallographic statistics of all structures can be found in S4 Table.
# [4] = target: T4, TTR (Homo sapiens, UniProt P02766); assay: Isothermal titration calorimetry (ITC); type: binding; conditions: for Kd: 25 °C, PBS pH 7.8, 3% DMSO
# T4 construct: purchased SCIPAC (Sittingbourne, Kent, UK) P171-1
# Protocol: All ITC experiments were conducted on an iTC200 calorimeter (GE Healthcare), and the settings were 25 °C, stir at 1000 RPM, 1–2 μL injection spaced with 100–150 seconds, reference power: 6 μcal/sec. Isotherms were fitted using ORIGIN 7 software (OriginLab, MA, USA). To prepare TTR ITC protein solution (5 mL), purified and freeze-dried human TTR was weighted and dissolved in 310 μL of pure water. The reconstituted protein solution was then desalted by spin column (Bio-Rad, Bio-Gel P6) and the eluted volume was transferred to a 15mL falcon tube. The protein solution was further diluted with 10x Phosphate Buffered Saline (PBS, 500 μL), DMSO (150 μL) and water, (f/c: 4.3 mM Na2HPO4, 137 mM NaCl, 2.7 mM KCl, 1.47 mM KH2PO4, 3% DMSO v/v, TTR 19.35–25 μM, pH 7.8). UV A260/280 was measured to obtain the actual protein concentration using a calculated extinction coefficient of 18450 M^-1 cm^-1. To prepare ligand ITC solution (1 mL), 30 μL of ligand stock in DMSO was diluted with 10x PBS (100 μL) and water (f/c: 4.3 mM Na2HPO4, 137 mM NaCl, 2.7 mM KCl, 1.47 mM KH2PO4, 3% DMSO v/v, Ligand 280–600 μM, pH 7.8).
# [5] = read-out: Mean 125I-T4 IC50 ± SD (N = 3)
# [6] = N = number of non-hydrogen atoms
structure (smiles),measurement,setting,value
"Nc1ccccc1S(N)(=O)=O [2-Aminobenzenesulphonamide, reference compound]",change of free 8-ANS peak height with compound in the Running Buffer,[1],changed minimally
"Nc1cc(Cl)cc(Cl)c1 [3,5-Dichloroaniline, reference compound]",change of free 8-ANS peak height with compound in the Running Buffer,[1],significant free 8-ANS peak height increase
same,IC50,[2],802 ± 319 µM
same,125I-T4 displacement at plateau,"[2]; neat plasma, exemplary curve",60%
same,total radioligand binding at plateau,"[2]; neat plasma, exemplary curve",around 40%
same,"ligand electron density, binding sites occupied in co-crystal structure",[3],only observed in one site
"Nc1cc(Cl)c(O)c(Cl)c1 [4-Amino-2,6-Dichlorophenol, reference compound]",change of free 8-ANS peak height with compound in the Running Buffer,[1],significant free 8-ANS peak height increase
"CC(=O)Nc1nnc(S(N)(=O)=O)s1 [Acetazolamide, reference compound]",change of free 8-ANS peak height with compound in the Running Buffer,[1],changed minimally
Nc1n[nH]c2nccc(-c3ccccc3)c12 [CDS014361],FPPHR % at 50 μM,[1],36.17% tested at 50 µM
same,IC50,[2]; [5],100 ± 11 µM
same,Confirmed by X-ray,[3],Yes 9H7L
Cc1[nH]ncc1-c1ccccc1 [Compound 12T-0222],FPPHR % at 50 μM,[1],25.63%
Clc1cc2cc[nH]c2cn1 [Compound 217869],FPPHR % at 50 μM,[1],12.83%
c1cc2[nH]ccc2cn1 [Compound 218458],FPPHR % at 50 μM,[1],5.03%
Nc1[nH]ncc1-c1ccc(Cl)cc1 [Compound 242212],FPPHR % at 50 μM,[1],25.65%
c1cnc2[nH]ccc2c1 [Compound 242506],FPPHR % at 50 μM,[1],7.85%
Clc1ccc2c(-c3cc[nH]n3)ccnc2c1 [Compound 63633004],FPPHR % tested at 10 µM,[1],22.71% tested at 10 µM
Cc1n[nH]c(-c2ccnc3ccccc23)n1 [Compound 71575026],FPPHR % tested at 10 µM,[1],17.07% tested at 10 µM
same,IC50,[2]; [5],238 ± 118 µM
same,Confirmed by X-ray,[3],Yes 9H7N
c1ccc2c(-c3nnc4cnccn34)ccnc2c1 [Compound 86471824],FPPHR % tested at 10 µM,[1],10.85% tested at 10 µM
Nc1nc(-c2cccc3cccnc23)c2cn[nH]c2n1 [Compound 96299361],FPPHR % tested at 10 µM,[1],23.20% tested at 10 µM
same,IC50,[2]; [5],105 ± 16.8 µM
same,Confirmed by X-ray,[3],Yes 9H7M
COC(=O)c1c[nH]c2ccccc12 [Compound A00010562],FPPHR % at 50 μM,[1],16.40%
c1cc2cc[nH]c2cn1 [Compound A00010944],FPPHR % at 50 μM,[1],3.73%
Clc1n[nH]c2ccccc12 [Compound A00014954],FPPHR % at 50 μM,[1],24.84%
c1ccc(-c2cn[nH]c2)cc1 [Compound Z1013760930],FPPHR % at 50 μM,[1],14.93%
"c1ccc(Nc2ccccc2)cc1 [Diphenylamine, reference compound]",change of free 8-ANS peak height with compound in the Running Buffer,[1],significant free 8-ANS peak height increase
"O=C(O)c1ccccc1Nc1ccccc1 [N-Phenylanthranilic Acid, reference compound]",IC50,[2],180 ± 61.8 µM
same,"ligand electron density, binding sites occupied in co-crystal structure",[3],occupied both sites
Nc1[nH]ncc1-c1ccccc1 [OR1969],FPPHR % at 50 μM,[1],13.28%
Cc1n[nH]c(Cl)c1-c1cccc2cccnc12 [SEL101928],IC50,[2]; [5],20.4 ± 4.13 µM
same,Kd,[4]; read-out: ITC Kd1 ± SD (N = 3),0.0497 µM
same,Kd,[4]; read-out: ITC Kd2 ± SD (N = 3),0.331 µM
same,"Kd1 LE (Ligand Efficiency, ΔG/N)",[4]; [6],0.59 kcal/mol
same,"Kd2 LE (Ligand Efficiency, ΔG/N)",[4]; [6],0.52 kcal/mol
N#Cc1c[nH]c2ccccc12 [SFL000013],FPPHR % at 50 μM,[1],18.13%
same,FPPHR % at 100 μM,[1],21.53%
same,FPPHR % at 300 μM ± SD (N = 3),"[1]; fragment 300 μM in Running Buffer, injected 30 μM 8-ANS / 20 μM TTR, hit cut-off 10%",23.08 ± 6.08%
same,Confirmed by X-ray,[3],"Yes 2 Sites, Full, 9H7G"
c1ccc2[nH]ncc2c1 [SFL000101],FPPHR % at 100 μM,[1],12.12%
c1ccc2[nH]ccc2c1 [SFL001004],FPPHR % at 100 μM,[1],17.18%
c1cncc(-c2nc3ccccc3[nH]2)c1 [SFL001465],FPPHR % at 100 μM,[1],6.22%
CN(C)Cc1c[nH]c2ncccc12 [SFL001519],FPPHR % at 50 μM,[1],1.88%
c1ccc2nc(-c3cn[nH]c3)ccc2c1 [SFL001536],FPPHR % at 100 μM,[1],18.42%
Cc1n[nH]c(N)c1-c1ccccc1 [SFL001561],IC50,[2]; [5],488 ± 107 µM
same,Confirmed by X-ray,[3],Yes 9H7J
Cc1nn(C)c(N)c1-c1ccccc1 [SFL001562],FPPHR % at 50 μM,[1],7.42%
c1ncc2[nH]cnc2n1 [SFL001639],FPPHR % at 100 μM,[1],5.29%
N#Cc1ncnc2nc[nH]c12 [SFL001640],FPPHR % at 100 μM,[1],4.78%
"O=C(O)c1ccc2nc(-c3cc(Cl)cc(Cl)c3)oc2c1 [Tafamidis, reference compound]",change of free 8-ANS peak height with compound in the Running Buffer,[1],significant free 8-ANS peak height increase
"N[C@@H](Cc1cc(I)c(Oc2cc(I)c(O)c(I)c2)c(I)c1)C(=O)O [Thyroxine T4, reference compound]",change of free 8-ANS peak height with compound in the Running Buffer,[1],significant free 8-ANS peak height increase
"COc1ccc(CCN(C)CCCC(C#N)(c2ccc(OC)c(OC)c2)C(C)C)cc1OC (stereo not drawn) [Verapamil, reference compound]",change of free 8-ANS peak height with compound in the Running Buffer,[1],changed minimally
